Structures can show the parent of a compound that is named as a salt. Where two headings read alike, the source gives them in different places.
Experiments:
Assay type in all cases: cell-based, human
HTT mRNA = assay: Splicing RT-qPCR assay, HTT canonical (CJ) and alternative (AJ) junction mRNA; settings: Homo sapiens; for IC50: canonical junction mRNA; for AC50: alternative junction mRNA, read-out: HTT AJ (AC50, increase in AJ mRNA)
How it was run: (§1)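 One-step RT-qPCR on cell lysates quantified CJ and AJ isoforms, normalized to PPIA for A673 or GAPDH/GUSB for K562. Cells were exposed for 24 h at 37° C to 11 concentrations in 3-fold steps up to 10 uM, with DMSO ≤0.25%. A673 were grown in DMEM and K562 in IMDM, both with 10% FBS.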

MYB mRNA = assay: Splicing RT-qPCR assay, MYB canonical (CJ) and alternative (AJ) junction mRNA; settings: Homo sapiens; for IC50: canonical junction mRNA; for AC50: alternative junction mRNA, read-out: MYB AJ (AC50, increase in AJ mRNA)
How it was run: as §1

Target C mRNA = assay: Splicing RT-qPCR panel, Target C canonical junction (CJ) mRNA; settings: Homo sapiens, read-out: Target C CJ (decrease in CJ mRNA levels, IC50)
How it was run: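 A673 cells (DMEM, 10% FBS) or K562 cells (IMDM, 10% FBS) treated 24 h at 37 °C with an 11-point 3-fold dilution, top 10 uM, DMSO ≤0.25%. Canonical-junction mRNA quantified in lysates by RT-qPCR, normalised to GAPDH, GUSB or PPIA and to DMSO (2^−ΔΔCt), then converted to % response.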

[1] = 24 h, RT-qPCR, A673 or K562 cells, 24 hours treatment, read-out: HTT CJ (IC50, decrease in CJ mRNA)
[2] = qPCR panel, read-out: HTT CJ (decrease in CJ mRNA levels, IC50)
[3] = RT-qPCR, A673 or K562 cells, 24 hours treatment
[4] = qPCR panel, read-out: MYB CJ (decrease in CJ mRNA levels, IC50)
[5] = RT-qPCR, A673 or K562 cells, 24 hours treatment, read-out: MYB CJ (IC50, decrease in CJ mRNA)

| SMILES | IC50 (HTT mRNA; [1]) [nM] | IC50 (HTT mRNA; [2]) [nM] | IC50 (MYB mRNA; [4]) [nM] | IC50 (MYB mRNA; [5]) [nM] | IC50 (Target C mRNA) [nM] | AC50 (HTT mRNA; [3]) [nM] | AC50 (MYB mRNA; [3]) [nM] |
| --- | --- | --- | --- | --- | --- | --- | --- |
| CN(C)C1CCN(c2cnc3nc(-c4cc5cn(C)nc5cc4O)ccc3c2)CC1 [Compound 316] | 1000 to 10000 | 1000 to 10000 | 100 to 1000 | 100 to 1000 | 1000 to 10000 | 1000 to 10000 | 100 to 1000 |
| Cc1cn2nc(-c3cc(Cl)c4cc(N5CCC(N(C)C)CC5)cnc4n3)cc(C)c2n1 [Compound 348] | 100 to 1000 | 100 to 1000 | 100 to 1000 | 100 to 1000 | 1000 to 10000 | 100 to 1000 | 100 to 1000 |
| CN(c1cnc2nc(-c3cc4cn(C)nc4c(F)c3O)ccc2c1)C1CCNCC1 [Compound 284] | 1000 to 10000 | 1000 to 10000 | 100 to 1000 | 100 to 1000 | > 10000 | 1000 to 10000 | 100 to 1000 |
| Cc1c(O)c(-c2cc(Cl)c3cc(N(C)[C@H]4CCNC4)cnc3n2)cc2cn(C)nc12 [Compound 294] | 100 to 1000 | 100 to 1000 | 100 to 1000 | 100 to 1000 | 1000 to 10000 | 1000 to 10000 | 100 to 1000 |
| CN[C@H]1CCN(c2cnc3nc(-c4cc5cn(C)nc5c(C)c4O)ncc3c2)C1 [Compound 120] | 100 to 1000 | 100 to 1000 | < 100 | < 100 | > 10000 | 100 to 1000 | < 100 |
| Cc1c(O)c(-c2cc(Cl)c3cc(NC4CCNC4)cnc3n2)cc2cn(C)nc12 (stereo not drawn) [Compound 146, 5-[4-chloro-6-(359pyrrolidine-3-ylamino)-1,8-naphthyridin-2-yl]-2,7-dimethylindazol-6-ol] | 100 to 1000 | 100 to 1000 | 100 to 1000 | 100 to 1000 | 1000 to 10000 | 100 to 1000 | < 100 |
| CCNC1CCN(c2cnc3nc(-c4cc5cn(C)nc5c(F)c4O)ccc3c2)C1 (stereo not drawn) [Compound 106, 5-{6-[3-(ethylamino)pyrrolidin-1-yl]-1,8-naphthyridin-2-yl}-7-fluoro-2-methylindazol-6-ol] | 100 to 1000 | 100 to 1000 | < 100 | < 100 | 100 to 1000 | 100 to 1000 | < 100 |

Further lines, with some results ahead:

| IC50 (HTT mRNA; [1]) [nM] | IC50 (HTT mRNA; [2]) [nM] | IC50 (MYB mRNA; [4]) [nM] | IC50 (MYB mRNA; [5]) [nM] | IC50 (Target C mRNA) [nM] | SMILES | AC50 (HTT mRNA; [3]) [nM] | AC50 (MYB mRNA; [3]) [nM] |
| --- | --- | --- | --- | --- | --- | --- | --- |
| < 100 | < 100 | < 100 | < 100 | 100 to 1000 | CNC1CCN(c2cnc3nc(-c4cc5cn(C)nc5c(C)c4O)cc(Cl)c3c2)C1 (stereo not drawn) [Compound 142, 5-{4-chloro-6-[3-(methylamino)351pyrrolidine-1-yl]-1,8-naphthyridin-2-yl}-2,7-dimethylindazol-6-ol] | 100 to 1000 | < 100 |
| < 100 | < 100 | < 100 | < 100 | 100 to 1000 | CCNC1CCN(c2cnc3nc(-c4cc5cn(C)nc5c(C)c4O)ccc3c2)C1 (stereo not drawn) [Compound 122, 5-{6-[3-(ethylamino)pyrrolidin-1-yl]-1,8-naphthyridin-2-yl}-2,7-dimethylindazol-6-ol] | < 100 | < 100 |
| < 100 | < 100 | < 100 | < 100 | 100 to 1000 | Cc1c(O)c(-c2ccc3cc(N4CCC(NCC5CC5)C4)cnc3n2)cc2cn(C)nc12 (stereo in doubt) [Compound 119, 5-{6-[(3R)-3-[(cyclopropylmethyl)amino]pyrrolidin-1-yl]-1,8-naphthyridin-2-yl}-2,7-dimethylindazol-6-ol] | 100 to 1000 | < 100 |
| < 100 | < 100 | < 100 | < 100 | 100 to 1000 | CCN[C@@H]1CCN(c2cnc3nc(-c4cc5cn(C)nc5cc4O)ccc3c2)C1 [Compound 310, 5-{6-[(3R)-3-(ethylamino)468pyrrolidine-1-yl]-1,8-naphthyridin-2-yl}-2-methylindazol-6-ol hydrochloride] | 100 to 1000 | < 100 |
| < 100 | < 100 | < 100 | < 100 | < 100 | CN[C@@H]1CCN(c2cnc3nc(-c4cc5cn(C)nc5c(C)c4O)ccc3c2)C1 [Compound 112] | < 100 | < 100 |

Source: patent US20250326748A1, “COMPOUNDS AND METHODS FOR MODULATING SPLICING” (REMIX THERAPEUTICS INC., priority 2022, published 2025)
